Laboratory results published in patent US20260034253A1, “NECTIN-4 MINIPROTEIN CONJUGATES” (Aktis Oncology, Inc., priority 2022, published 2026).
Bridge positions count the residues as written; N and C are the ends. Primed or numbered codes have the meaning given here. * marks the point of attachment. DOTA‑PEG4 = alpha-(1,4,7,10-tetraazacyclododecan-1,4,7,10-tetraacetate)-4(ethylene glycol); DOTA = O=C(O)CN1CCN(CC(=O)O)CCN(CC(=O)*)CCN(CC(=O)O)CC1; PEG4′ = polyethylene glycol (PEG4) linker

What was measured:
[1] = Plasma pharmacokinetic analysis in Sprague Dawley rats; type: in vivo; details: rat, bolus intravenous injection, read-out: PK DATA (t½ - min)
Method: Nine blood collection timepoints are taken from 2-24 hours, processed to plasma with K2EDTA, and are frozen for subsequent bioanalysis. Plasma miniprotein concentrations are measured by LC-MS/MS. Plasma FITC-sinistrin is measured fluorometrically. […] Finally, non-compartmental analysis is performed to estimate plasma pharmacokinetic parameters.
Exemplary pK data for exemplary Nectin-4 miniprotein monomers were tested in vivo (t1/2 mins), showing an average pK for these exemplary compounds.

[2] = tested on: HT1376 urothelial cancer cells; test: In vitro cell cytotoxicity assay of actinium-225 radioconjugates (CellTiter-Glo); type: cell-based; details: compound radiolabeled with 225Ac, 24 hours treatment, 4-5 days regrowth, cell viability
Method: Cytotoxicity to actinium-225 radioconjugates was assessed in HT1376 urothelial cancer cells. Cells were seeded in 96-well plates at densities of 250 to 1000 cells per well two days prior to treatment. On the day of treatment actinium-225 radioconjugates were diluted in culture medium to concentrations ranging from 0.0001 to 100 uCi/mL and treatment solutions were incubated with cells for 24 hours. At the end of the treatment period, the treatment solution was removed, and fresh culture medium was replenished for the regrowth period of the assay that lasted 4-5 days. At the end of the regrowth period the culture medium was removed and viability was assessed by CellTiter-Glo (Promega, Waltham MA) luminescent assay and the plates were read on a Perkin Elmer Enspire multimode plate reader. Data were normalized to treatment controls and plotted as non-linear sigmoidal dose response curves to determine the effective concentration for 50% reduction in cell viability.

[3] = Thermal stability at 75° C. in 0.9% saline by HPLC; type: physicochemical; details: 1 mg/mL, 0.9% Saline solution, 60 minutes, FIG. 7
Method: The thermal stability of an exemplary compound, C215, was analyzed at a concentration of 1 mg/mL at 75° C. in 0.9% Saline solution. A heating plate was set to 75° C. and the sample was heated for a period of one hour. The vial was shaken prior to collecting […] at 5, 10, 15, 30 and 60 minute time intervals. The % parent remaining was analyzed by HPLC using the following system and method: Analytical Agilent 1100 HPLC system using a 4.6×250 mm, 300 Angstrom, BEH300, […], Xbridge C18 column at […]. The solvent system consisted of A=Water+0.1% TFA, B=Acetonitrile+0.1% TFA. The gradient consisted of 5% to 70% B over 15 minutes, then the column was washed and equilibrated to initial conditions.

[4] = previously published, Challita-Eid et al Cancer Res (2016); cited from earlier work
[5] = target: T1, Nectin-4 on HT1376 urothelial cancer cells (UniProt Q96NY8 32-510); test: saturation radioligand binding (Lu-177) on HT1376 cells, 4 C, gamma counting
T1 construct: whole, on cells; also called HT1376 cells
T1 sequence (looked up): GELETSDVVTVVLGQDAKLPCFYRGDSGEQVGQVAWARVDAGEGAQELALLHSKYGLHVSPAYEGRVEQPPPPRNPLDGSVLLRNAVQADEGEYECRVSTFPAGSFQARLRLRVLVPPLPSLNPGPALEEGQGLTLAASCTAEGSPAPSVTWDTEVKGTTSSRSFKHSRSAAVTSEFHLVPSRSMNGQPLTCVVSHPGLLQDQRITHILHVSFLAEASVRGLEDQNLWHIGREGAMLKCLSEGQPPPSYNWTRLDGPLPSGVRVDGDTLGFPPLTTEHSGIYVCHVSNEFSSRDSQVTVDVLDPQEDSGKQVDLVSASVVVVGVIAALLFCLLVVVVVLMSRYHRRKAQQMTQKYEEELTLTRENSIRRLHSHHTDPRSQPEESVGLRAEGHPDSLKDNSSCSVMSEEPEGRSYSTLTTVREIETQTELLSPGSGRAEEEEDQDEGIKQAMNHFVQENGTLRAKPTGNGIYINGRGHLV
Method: Radioligand binding was performed in HT1376 urothelial cancer cells by method of saturation. Cells were seeded at 20,000 cells per well in 96-well format 48 hours prior to assay. Lutetium-177-labeled radioconjugates of C215 and C117 were incubated with cells at 4 deg C. for 1 h at various increasing concentrations of radioligand. At the end of incubation cells were washed three times with PBS and radioactivity was quantified by gamma counting as shown in Table 3.

CC[C@H](C)[C@@H]1NC(=O)[C@H](CC(=O)O)NC(=O)CNC(=O)CNC(=O)[C@H](CCCNC(N)=O)NC(=O)[C@H](CC(C)C)NC(=O)[C@H](CCCNC(N)=O)NC(=O)[C@H](CCCCNC(C)=O)NC(=O)[C@H](CC(C)C)NC(=O)[C@H](C)NC(=O)[C@H]([C@@H](C)O)NC(=O)[C@H](Cc2ccccc2)NC(=O)[C@H](Cc2ccccc2)NC(=O)[C@H](CCC(=O)O)NC(=O)[C@H](CCC(=O)O)NC(=O)[C@H](CC(=O)O)NC(=O)[C@H](Cc2ccc(O)cc2)NC(=O)[C@H](CCC(=O)O)NC(=O)[C@@H](NC(=O)CCOCCOCCOCCOCCNC(=O)CN2CCN(CC(=O)O)CCN(CC(=O)O)CCN(CC(=O)O)CC2)CSSC[C@@H]2NC(=O)[C@H](CC(C)C)NC(=O)[C@H](CCCCN)NC(=O)[C@@H]3CCCN3C(=O)[C@H](C(C)C)NC(=O)[C@H](CCCCN)NC(=O)[C@H](CCCCN)NC(=O)[C@H](Cc3ccccc3)NC(=O)[C@H](CCCCN)NC(=O)[C@H](CCCCN)NC(=O)[C@H](CCCCN)NC(=O)[C@H]([C@@H](C)CC)NC(=O)[C@H](Cc3ccc(O)cc3)NC(=O)[C@H](Cc3ccc(O)cc3)NC(=O)[C@H](CSSC[C@@H](C(N)=O)NC(=O)CNC(=O)[C@H](CC(C)C)NC(=O)[C@H](CCCCNC(C)=O)NC(=O)[C@H](CC(=O)O)NC(=O)[C@H](CC(C)C)NC(=O)[C@H]([C@@H](C)CC)NC(=O)[C@H](CCC(=O)O)NC(=O)[C@H](CCC(=O)O)NC(=O)[C@H]([C@@H](C)CC)NC2=O)NC1=O [Compound C217]
half-life [1]: 31.4 min

C215 (CEYDEEFFTALKRLRGGDICYYIKKKFKKVPKLCIEEILDKLGC) [Compound C215]
EC50 (microcurie/milliliter) for Ac-225 radioconjugates [2]: 0.086 microcurie/milliliter | Thermal stability (% parent remaining) [3]: remain stable

C214 ({DOTA‑PEG4}-CEYDEEFFTALKRLRGGDICYYIKKKFDYLPKLCIEEILDNLGC-NH2; disulfide 1-34, 20-44) [Compound C214]
EC50 (microcurie/milliliter) for Ac-225 radioconjugates [2]: 0.014 microcurie/milliliter

enfortumab vedotin
PK DATA (t½ - min) [4]: 2,476.8 min | PK DATA (t½) [4]: 41.3 h

CC[C@H](C)[C@@H]1NC(=O)[C@H](CC(=O)O)NC(=O)CNC(=O)CNC(=O)[C@H](CCCNC(=N)N)NC(=O)[C@H](CC(C)C)NC(=O)[C@H](CCCNC(=N)N)NC(=O)[C@H](CCCCN)NC(=O)[C@H](CC(C)C)NC(=O)[C@H](C)NC(=O)[C@H]([C@@H](C)O)NC(=O)[C@H](Cc2ccccc2)NC(=O)[C@H](Cc2ccccc2)NC(=O)[C@H](CCC(=O)O)NC(=O)[C@H](CCC(=O)O)NC(=O)[C@H](CC(=O)O)NC(=O)[C@H](Cc2ccc(O)cc2)NC(=O)[C@H](CCC(=O)O)NC(=O)[C@@H](NC(=O)CCOCCOCCOCCOCCNC(=O)CN2CCN(CC(=O)O)CCN(CC(=O)O)CCN(CC(=O)O)CC2)CSSC[C@@H]2NC(=O)[C@H](CC(C)C)NC(=O)[C@H](CCCCNC(C)=O)NC(=O)[C@@H]3CCCN3C(=O)[C@H](C(C)C)NC(=O)[C@H](CCCCNC(C)=O)NC(=O)[C@H](CCCCNC(C)=O)NC(=O)[C@H](Cc3ccccc3)NC(=O)[C@H](CCCCNC(C)=O)NC(=O)[C@H](CCCCNC(C)=O)NC(=O)[C@H](CCCCNC(C)=O)NC(=O)[C@H]([C@@H](C)CC)NC(=O)[C@H](Cc3ccc(O)cc3)NC(=O)[C@H](Cc3ccc(O)cc3)NC(=O)[C@H](CSSC[C@@H](C(N)=O)NC(=O)CNC(=O)[C@H](CC(C)C)NC(=O)[C@H](CCCCN)NC(=O)[C@H](CC(=O)O)NC(=O)[C@H](CC(C)C)NC(=O)[C@H]([C@@H](C)CC)NC(=O)[C@H](CCC(=O)O)NC(=O)[C@H](CCC(=O)O)NC(=O)[C@H]([C@@H](C)CC)NC2=O)NC1=O [Compound C216]
half-life [1]: 31.4 min

{DOTA-PEG4′}-CEYDEEFFTALKRLRGGDICYYIQAKFQYLPKLCIEEILDNLGCS-OH (designed binder, disulfide 1-34, 20-44; also: DOTA labeled with lutetium-177) [Lutetium-177-labeled radioconjugate of C117]
Kd [5]: 0.89 nM
